Converted amounts (≈) assume the structure as drawn. “And” between values parts separate entries of the source, which are not always exact repeats. Equal values may be shown once. Blank lines part the entries; values can stand above or below the compound they belong to.
Experiments:
Test in all cases: ≥ marks a high value that may be exact or a test limit, other limits are often not marked, values filed in µg/mL are converted to µM
[1] = system: Enterococcus faecium 091299
[2] = system: Psychrobacter faecalis X29
[3] = system: Enterococcus faecalis 981
[4] = system: Rhodococcus rhodochrous X15
[5] = system: Bacillus licheniformis X39
[6] = system: Candida albicans ATCC 2002
[7] = system: Escherichia coli ATCC 25922
[8] = system: Staphylococcus carnosus KHS
[9] = system: Staphylococcus aureus ATCC 25923
Escherichia coli B = system: Escherichia coli B
[10] = system: Pseudomonas aeruginosa ATCC 27853
[11] = system: Listeria monocytogenes KCTC 3710
[12] = system: Staphylococcus aureus 547582
[13] = system: Pseudomonas aeruginosa 3320
[14] = system: Candida albicans F7-39/IDE99
Bacillus subtilis 168 = system: Bacillus subtilis 168
Staphylococcus aureus = system: Staphylococcus aureus
[15] = system: Staphylococcus aureus ATCC 29213
[16] = system: Pseudomonas aeruginosa ATCC 15692
Escherichia coli LEC001 = system: Escherichia coli LEC001
[17] = system: Escherichia coli NCTC 12923
[18] = system: Pseudomonas aeruginosa PAO1
[19] = system: Klebsiella pneumoniae NCTC 13368
[20] = system: Acinetobacter baumannii AYE
[21] = system: Escherichia coli ATCC 25726
[22] = system: Pseudomonas aeruginosa NCTC 13437
[23] = system: Candida albicans ATCC 90028
Klebsiella pneumoniae M6 = system: Klebsiella pneumoniae M6
[24] = system: Staphylococcus aureus ATCC 9144
[25] = system: Staphylococcus aureus NCTC 13616
[26] = system: Acinetobacter baumannii ATCC 17978
[27] = system: Staphylococcus aureus USA 300
[28] = system: Streptococcus mutans ATCC 10449
[29] = system: Enterococcus faecalis NCTC 12697
[30] = system: Acinetobacter baumannii I NM8
[31] = system: Klebsiella pneumoniae ATCC 700603
[32] = system: Stenotrophomonas maltophilia
[33] = system: Pseudomonas aeruginosa PAO239
[34] = system: Candida albicans NCTC 3179
[35] = system: Fusobacterium nucleatum NCTC 10562
[36] = system: Leuconostoc mesenteroides
Bacillus cereus = system: Bacillus cereus
Escherichia coli = system: Escherichia coli
[37] = system: Batrachochytrium dendrobatidis
Enterococcus faecalis = system: Enterococcus faecalis
Streptococcus uberis = system: Streptococcus uberis
Micrococcus luteus = system: Micrococcus luteus
Mannheimia haemolytica = system: Mannheimia haemolytica

MIC [1]: 19 µM (≈ 50.6 µg/mL)
MIC [2]: 4.8 µM (≈ 12.8 µg/mL)
MIC [3]: 19 µM (≈ 50.6 µg/mL)
MIC [4]: 1.2 µM (≈ 3.2 µg/mL)
MIC [5]: 2.4 µM (≈ 6.39 µg/mL)
MIC [6]: 2.4 µM (≈ 6.39 µg/mL)
MIC [7]: 150 µM (≈ 400 µg/mL)
MIC [8]: 4.8 µM (≈ 12.8 µg/mL)
MIC [9]: 1.2 µM (≈ 3.2 µg/mL)
Compound: CC[C@H](C)[C@H](NC(=O)[C@H](CC(C)C)NC(=O)[C@@H]1CCCN1C(=O)[C@H](CC(C)C)NC(=O)[C@@H](N)Cc1ccccc1)C(=O)N[C@@H](C)C(=O)N[C@@H](CO)C(=O)N[C@@H](CC(C)C)C(=O)N[C@@H](C)C(=O)N[C@@H](C)C(=O)N[C@@H](CC(N)=O)C(=O)N[C@@H](Cc1ccccc1)C(=O)N[C@H](C(=O)N1CCC[C@H]1C(=O)N[C@@H](CCCCN)C(=O)N[C@H](C(=O)N[C@@H](Cc1ccccc1)C(=O)N[C@H]1CSSC[C@@H](C(=O)O)NC(=O)[C@H](CCCCN)NC(=O)[C@H](CCCCN)NC(=O)[C@H]([C@@H](C)O)NC(=O)[C@H]([C@@H](C)CC)NC(=O)[C@H](CCCCN)NC1=O)[C@@H](C)CC)C(C)C [FLPLIASLAANFVPKIFCKITKKC]

MIC (Escherichia coli B): 3 µM (≈ 4.25 µg/mL)
MIC [10]: 6.25 µM (≈ 8.86 µg/mL)
MIC [11]: 25 µM (≈ 35.4 µg/mL)
MIC [12]: 8 µM (≈ 11.3 µg/mL)
MIC [13]: 8 µM (≈ 11.3 µg/mL)
MIC [14]: 6.3 µM (≈ 8.93 µg/mL)
MIC [7]: 6.25 µM (≈ 8.86 µg/mL)
MIC (Bacillus subtilis 168): 1.3 µM (≈ 1.84 µg/mL)
MIC (Staphylococcus aureus): 3.7 µM and 4.43 µM
MIC [9]: 3.13 µM (≈ 4.43 µg/mL)
MIC [15]: 3.13 µM (≈ 4.43 µg/mL)
MIC [16]: 6.25 µM (≈ 8.86 µg/mL)
Compound: CSCC[C@H](NC(=O)CNC(=O)[C@H](Cc1ccccc1)NC(=O)CN)C(=O)N[C@@H](C)C(=O)N[C@@H](CC(C)C)C(=O)N[C@@H](CCCCN)C(=O)N[C@@H](CC(C)C)C(=O)N[C@@H](CC(C)C)C(=O)N[C@@H](CCCCN)C(=O)N[C@@H](CCCCN)C(=O)N[C@H](C(=O)N[C@@H](CC(C)C)C(N)=O)C(C)C [GFGMALKLLKKVL]

MIC (Escherichia coli LEC001): 2.78 µM (≈ 8 µg/mL)
MIC [17]: 2.78 µM (≈ 8 µg/mL)
MIC [18]: > 44.5 µM
MIC [19]: 11.1 µM (≈ 32 µg/mL)
MIC [20]: 1.39 µM (≈ 4 µg/mL)
MIC [21]: 3 µM (≈ 8.64 µg/mL)
MIC [22]: ≥ 44.5 µM
MIC [23]: 25 µM (≈ 72 µg/mL)
MIC (Klebsiella pneumoniae M6): 5.56 µM (≈ 16 µg/mL)
MIC [24]: 1.39 µM (≈ 4 µg/mL)
MIC [9]: 6 µM (≈ 17.3 µg/mL)
MIC [25]: 1.39 µM (≈ 4 µg/mL)
MIC [26]: 1.39 µM (≈ 4 µg/mL)
MIC [27]: 2.78 µM (≈ 8 µg/mL)
Compound: CSCC[C@H](NC(=O)[C@H](CCSC)NC(=O)[C@H](CCCCN)NC(=O)CNC(=O)[C@@H](NC(=O)[C@@H](NC(=O)[C@H](CCCCN)NC(=O)[C@H](CC(C)C)NC(=O)CNC(=O)[C@H](Cc1ccccc1)NC(=O)[C@H](CCCCN)NC(=O)[C@H](Cc1ccccc1)NC(=O)[C@H](C)NC(=O)[C@H](CCCCN)NC(=O)CNC(=O)[C@H](CC(C)C)NC(=O)[C@H](CC(C)C)NC(=O)[C@H](CO)NC(=O)CNC(=O)[C@H](CC(C)C)NC(=O)CN)[C@@H](C)O)C(C)C)C(=O)NCC(=O)NCC(=O)N[C@@H](C)C(=O)N1CCC[C@H]1C(=O)N[C@@H](CCCN=C(N)N)C(=O)N[C@@H](CCC(=O)O)C(=O)N[C@@H](CCC(N)=O)C(=O)O [GLGSLLGKAFKFGLKTVGKMMGGAPREQ]

MIC [28]: 3.1 µM (≈ 5.03 µg/mL)
MIC [29]: ≥ 100 µM
MIC [30]: 6 µM (≈ 9.74 µg/mL)
MIC [10]: 25 µM (≈ 40.6 µg/mL)
MIC [31]: 25 µM (≈ 40.6 µg/mL)
MIC [32]: 4 µM (≈ 6.49 µg/mL)
MIC [33]: 25 µM (≈ 40.6 µg/mL)
MIC [7]: 12.5 µM (≈ 20.3 µg/mL)
MIC [34]: ≥ 50 µM
MIC [9]: 6 µM (≈ 9.74 µg/mL)
MIC [35]: 6.25 µM (≈ 10.1 µg/mL)
Compound: CC[C@H](C)[C@H](NC(=O)[C@H](CCCCN)NC(=O)[C@H](CC(C)C)NC(=O)[C@H](C)NC(=O)[C@H](CCCCN)NC(=O)CNC(=O)[C@H](CC(C)C)NC(=O)[C@@H](NC(=O)[C@H](CO)NC(=O)CNC(=O)[C@H](CC(C)C)NC(=O)CN)C(C)C)C(=O)NCC(=O)N[C@@H](C)C(=O)N[C@@H](CC(N)=O)C(=O)N[C@@H](CC(C)C)C(=O)N[C@@H](CC(C)C)C(N)=O [GLGSVLGKALKIGANLL]

MIC [36]: 11.5 µM (≈ 24 µg/mL)
MIC (Bacillus cereus): 5.73 µM (≈ 12 µg/mL)
MIC (Escherichia coli): 22.9 µM (≈ 48 µg/mL)
MIC [37]: ≥ 100 µM
MIC (Enterococcus faecalis): ≥ 68.8 µM
MIC (Streptococcus uberis): 22.9 µM (≈ 48 µg/mL)
MIC (Staphylococcus aureus): 45.8 µM (≈ 96 µg/mL)
MIC (Micrococcus luteus): 0.688 µM (≈ 1.44 µg/mL)
Compound: CSCC[C@H](N=C(O)[C@H](CC(C)C)N=C(O)CN)C(O)=N[C@@H](CO)C(O)=N[C@H](C(O)=N[C@@H](CC(C)C)C(O)=NCC(O)=N[C@@H](Cc1cnc[nH]1)C(O)=N[C@@H](C)C(O)=N[C@H](C(O)=NCC(O)=N[C@@H](CC(=N)O)C(O)=N[C@H](C(O)=N[C@@H](CC(C)C)C(O)=NCC(O)=NCC(O)=N[C@@H](CC(C)C)C(O)=N[C@@H](Cc1ccccc1)C(O)=N[C@@H](CCCCN)C(=O)N1CCC[C@H]1C(O)=N[C@@H](CCCCN)C(=O)O)C(C)C)C(C)C)C(C)C [GLMSVLGHAVGNVLGGLFKPKS]
MIC (Mannheimia haemolytica): 0.367 µM (≈ 0.768 µg/mL)

Reference: DBAASP
